Data as given in ChEMBL document CHEMBL4138060, “Development of new scaffolds as reversible tissue transglutaminase inhibitors, with improved potency or resistance to glutathione addition” (Medchemcomm, 2017).
pIC50, pKi: −log10 of the molar value.

Molecular target: not listed separately
Assay: Inhibition of guinea pig liver transglutaminase 2
Parameters: species or system Cavia porcellus
Settings: not given; call rule not given here

pIC50 | Compound
4.68 | O=C(/C=C/c1ccc([N+](=O)[O-])cc1)c1cccnc1
5.52 | O=C(/C=C/c1cccc([N+](=O)[O-])c1)c1cccnc1
4.13 | O=C(/C=C/c1ccc([N+](=O)[O-])cc1)n1nnc2ccccc21

Molecular target: not listed separately
Assay: Inhibition of guinea pig liver transglutaminase 2 using N-Cbz-Glu(gamma-p-nitrophenylester)Gly (AL5) substrate measured over 10 mins by UV-visible spectrophotometry
Parameters: species or system Cavia porcellus
Settings: not given

Compound | pIC50
O=C(/C=C/c1ccc([N+](=O)[O-])cc1)c1cn(Cc2ccc([N+](=O)[O-])cc2)nn1 | 5.68
O=C(/C=C/c1ccc([N+](=O)[O-])cc1)n1nnc2ccccc21 | 4.13

Molecular target: T1, Protein-glutamine gamma-glutamyltransferase (Homo sapiens, UniProt P21980)
T1 sequence (P21980 whole entry): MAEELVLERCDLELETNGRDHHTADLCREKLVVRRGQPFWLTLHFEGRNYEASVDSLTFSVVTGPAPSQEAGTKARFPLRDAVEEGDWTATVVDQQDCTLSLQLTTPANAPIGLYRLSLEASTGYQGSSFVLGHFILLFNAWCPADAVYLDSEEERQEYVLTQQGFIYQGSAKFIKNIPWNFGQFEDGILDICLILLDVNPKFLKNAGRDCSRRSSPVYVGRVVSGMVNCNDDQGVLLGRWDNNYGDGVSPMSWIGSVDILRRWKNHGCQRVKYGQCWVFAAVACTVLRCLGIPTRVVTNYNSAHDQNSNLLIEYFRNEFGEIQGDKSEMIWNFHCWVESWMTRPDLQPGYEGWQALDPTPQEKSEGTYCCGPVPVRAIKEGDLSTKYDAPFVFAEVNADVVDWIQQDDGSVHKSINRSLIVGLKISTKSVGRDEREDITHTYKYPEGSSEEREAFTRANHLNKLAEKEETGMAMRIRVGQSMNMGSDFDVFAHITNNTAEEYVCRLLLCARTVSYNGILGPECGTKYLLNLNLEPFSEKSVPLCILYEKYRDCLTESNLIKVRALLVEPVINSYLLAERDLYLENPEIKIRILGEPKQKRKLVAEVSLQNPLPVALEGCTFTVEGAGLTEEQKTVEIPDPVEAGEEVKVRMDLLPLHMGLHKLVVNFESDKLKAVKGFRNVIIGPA
Assay: Competitive inhibition of human transglutaminase 2 using N-Cbz-Glu(gamma-p-nitrophenylester)Gly (AL5) substrate measured over 10 mins by UV-visible spectrophotometry based Michaelis-Menten analysis
Settings: not given

Compound | pKi
O=C(c1cn(Cc2ccc([N+](=O)[O-])cc2)nn1)c1cn(Cc2ccc([N+](=O)[O-])cc2)nn1 | 5.00
O=C(C#Cc1ccc([N+](=O)[O-])cc1)c1cn(Cc2ccc([N+](=O)[O-])cc2)nn1 | 6.38

Molecular target: T1, Protein-glutamine gamma-glutamyltransferase
Assay: Inhibition of human transglutaminase 2 using N-Cbz-Glu(gamma-p-nitrophenylester)Gly (AL5) substrate measured over 10 mins by UV-visible spectrophotometry
Settings: not given

Compound | IC50
COc1ccc(Cn2cc(C(=O)c3cn(Cc4ccc([N+](=O)[O-])cc4)nn3)nn2)cc1 | Not Active
O=C(c1cn(Cc2ccc(C(F)(F)F)cc2)nn1)c1cn(Cc2ccc(C(F)(F)F)cc2)nn1 | Not Active
O=C(c1cn(Cc2ccc(Br)cc2)nn1)c1cn(Cc2ccc([N+](=O)[O-])cc2)nn1 | Not Active
O=C(c1cn(Cc2ccc(F)cc2)nn1)c1cn(Cc2ccc([N+](=O)[O-])cc2)nn1 | Not Active
O=C(c1cn(Cc2ccc([N+](=O)[O-])cc2)nn1)c1cn(CC2CCCCC2)nn1 | Not Active
O=C(c1cn(Cc2ccccc2)nn1)c1cn(Cc2ccc([N+](=O)[O-])cc2)nn1 | Not Active
Cc1ccc(Cn2cc(C(=O)c3cn(Cc4ccc([N+](=O)[O-])cc4)nn3)nn2)cc1 | Not Active

Further lines, results first:

IC50 | Compound
Not Active | CC(C)/C(=C\C(=O)n1nnc2ccccc21)c1ccc([N+](=O)[O-])cc1
Not Active | O=[N+]([O-])c1cccc(-c2cc(-c3cccnc3)on2)c1
Not Active | C/C(=C\C(=O)n1nnc2ccccc21)c1ccc([N+](=O)[O-])cc1
Not Active | CC(C)/C(=C/C(=O)n1nnc2ccccc21)c1ccc([N+](=O)[O-])cc1

Same assay, conditions: read-out: IC50

Compound | pIC50
O=C(c1cn(Cc2ccc([N+](=O)[O-])cc2)nn1)c1cn(Cc2cccc([N+](=O)[O-])c2)nn1 | < 4.00
O=C(c1cn(Cc2ccc(OC(F)(F)F)cc2)nn1)c1cn(Cc2ccc([N+](=O)[O-])cc2)nn1 | < 4.00
O=C(c1cn(Cc2ccc([N+](=O)[O-])cc2)nn1)c1cn(Cc2ccccc2[N+](=O)[O-])nn1 | 4.19
N#Cc1ccc(Cn2cc(C(=O)c3cn(Cc4ccc([N+](=O)[O-])cc4)nn3)nn2)cc1 | < 4.00
O=C(c1cn(Cc2ccc([N+](=O)[O-])cc2)nn1)c1cn(Cc2ccc([N+](=O)[O-])cc2)nn1 | 4.85
O=C(C#Cc1ccc([N+](=O)[O-])cc1)c1cn(Cc2ccc([N+](=O)[O-])cc2)nn1 | 6.10
O=C(c1cn(Cc2ccc([N+](=O)[O-])cc2)nn1)c1cn(Cc2ccc(C(F)(F)F)cc2)nn1 | 4.59

Next, values leading:

pIC50 | Compound
4.71 | O=C(/C=C/c1cccc([N+](=O)[O-])c1)c1cccnc1
5.59 | O=C(C#Cc1ccc([N+](=O)[O-])cc1)n1nnc2ccccc21
3.84 | O=C(c1cc2cc([N+](=O)[O-])ccc2oc1=O)n1nnc2ccccc21
3.83 | O=C(c1cccnc1)[C@H]1C[C@@H]1c1cccc([N+](=O)[O-])c1
3.82 | O=[N+]([O-])c1cccc(/C=C/C2(c3cccnc3)CO2)c1 (stereo not drawn)
6.21 | O=C(C#Cc1ccc([N+](=O)[O-])cc1)c1cn(Cc2ccccc2)nn1

Molecular target: T1, Protein-glutamine gamma-glutamyltransferase
Assay: Inhibition of human transglutaminase 2
Settings: not given

pIC50 | pKi | Compound
4.71 | 5.40 | O=C(/C=C/c1cccc([N+](=O)[O-])c1)c1cccnc1
